The target of the assay is T1, human CRTH2 (Homo sapiens, UniProt Q9Y5Y4).
T1 construct: expressed in transfected cells
T1 sequence (Q9Y5Y4 1-395): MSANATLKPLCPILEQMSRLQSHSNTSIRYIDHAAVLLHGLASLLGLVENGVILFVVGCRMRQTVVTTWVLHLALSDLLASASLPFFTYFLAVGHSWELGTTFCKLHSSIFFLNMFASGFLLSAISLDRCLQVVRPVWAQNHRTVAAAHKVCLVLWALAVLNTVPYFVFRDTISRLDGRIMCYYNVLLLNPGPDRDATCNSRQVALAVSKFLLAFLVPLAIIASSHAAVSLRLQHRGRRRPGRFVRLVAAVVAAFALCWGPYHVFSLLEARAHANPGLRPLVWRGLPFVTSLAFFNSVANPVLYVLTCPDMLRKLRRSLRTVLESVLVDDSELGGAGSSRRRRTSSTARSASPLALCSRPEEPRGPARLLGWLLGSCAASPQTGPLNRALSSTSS
Kind of assay: Human CRTH2 Receptor Binding Assay (whole cell, [3H]ramatroban competition). Conditions: CHO-K1 cells expressing human CRTH2 and G-alpha16; 20 nM [3H]ramatroban; 1 hour, room temperature. The method, boiled down:
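CHO-K1 cells stably co-expressing human CRTH2 and G-alpha16, 1.5×10^5 per reaction, incubated 1 hour at room temperature with 20 nM [3H]ramatroban in PBS containing 10 mM MgCl2 and 0.06% BSA. Non-specific binding defined with 10 μM 15(R)-15-methyl PGD2. IC50 from 7 concentrations by 4-parameter logistic fit of specific binding inhibition.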

The structures appear in SMILES notation.

On to `O=C(O)Cn1ncc2c1CCCC2NS(=O)(=O)c1cccc(NS(=O)(=O)c2ccccc2)c1` (stereo not shown) [Example 15-1a, [4-(3-Benzenesulfonylamino-benzenesulfonylamino)-4,5,6,7-tetrahydro-indazol-1-yl]-acetic acid], for which the IC50 (in general, the concentration at which inhibition is half-maximal) worked out at 360 nM.

The record behind these values is patent publication US8420675B2, “Aminotetrahydroindazoloacetic acids” (Hoffmann-La Roche Inc., priority 2008, dated 2013).
